The target in one assay is T1, HSP90a protein (Homo sapiens, UniProt P07900).
T1 construct: purchased BPS Bioscience 50298
Put plainly: HSP90α-binding fluorescent polarization (FP) assay, BODIPY-labeled RNK04010 probe. Particulars: FP competition with RNK04010 (BODIPY-labeled), 5 nM, 300 min at 25° C. In short, it runs like this: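 Compounds (20 μM down to 5.2 nM, 2.5-fold steps) compete with a 5 nM fluorescent tracer for N-terminal HSP90a, measured by fluorescence polarization. With FITC-geldanamycin, plates sit 120 min at 25 °C. With BODIPY-RNK04010, they sit 300 min at 25 °C.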

For assay [1], the system named is MIA PaCa-2 human pancreatic carcinoma. Briefly: MIA PaCa-2 CCK-8 proliferation assay. The class given is cell-based. Particulars: MIA PaCa-2 cells. The gist of the method:
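Compounds were tested as a 3-fold series from 20 μM down to 1.02 nM in CCK-8 absorbance assays. The lines used were NCI-H23 and NCI-H358, each with 1 KRAS(G12C) copy, and MIA PaCa-2 with 2 copies. Inhibition was derived relative to DMSO controls, with a no-cell blank subtracted.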

The target in assay [2] is T2, KRAS(G12C) (Homo sapiens, UniProt P01116, G12C). Put plainly: KRAS(G12C)/SOS1 homogeneous time-resolved fluorescence (HTRF) assay. Further details: purchased Cisbio 63ADK000CB16PEG. The settings on record: absence of GTP, 4° C. for 3 hr, read-out: KRAS (G12C) binding. The gist of the method: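 Three-hour incubation at 4 °C of 3-fold compound dilutions (lowest 1.02 nM) with KRAS(G12C), SOS1 and detection reagents, GTP absent. Disruption of the KRAS(G12C)/SOS1 complex detected by time-resolved fluorescence.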
For orientation: TR-FRET usually uses a lanthanide donor and a delayed reading to cut background.

In assay [3] the target is T2, KRAS(G12C). Briefly: KRAS(G12C) Western blot protein degradation assay in LU65A cells. The settings on record: 6 hr. The class given is cell-based. Further details: LU65A human lung cancer cell line, which expresses KRAS(G12C); host or cells: LU65A. In short, it runs like this: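 KRAS levels read by fluorescent Western blot (β-actin as reference) on BCA-normalized lysates. Exposure to a compound concentration range at 37 °C lasted 6 hr in LU65A and 48 hr in MIA PaCa-2; DC50 taken as half-maximal degradation concentration.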
(Immunoblotting shows a protein as a band on a membrane.)

For the molecule `C=CC(=O)N1CCN(c2nc(OCCN3CCN(C(=O)C4CCN(Cc5ccc(-n6c(C(N)=O)nnc6-c6cc(C(C)C)c(O)cc6O)cc5)CC4)CC3)nc3c2CCN(c2cccc4cccc(Cl)c24)C3)C[C@@H]1CC#N` [Compound 193, (S)-4-(4-((4-(4-(2-((4-(4-acryloyl-3-(cyanomethyl)piperazin-1-yl)-7-(8-chloronaphthalen-1-yl)-5,6,7,8-tetrahydropyrido[3,4-d]pyrimidin-2-yl)oxy)ethyl)piperazine-1-carbonyl)piperidin-1-yl)methyl)phenyl)-5-(2,4-dihydroxy-5-isopropylphenyl)-4H-1,2,4-triazole-3-carboxamide], the IC50 at HSP90a protein and on KRAS(G12C) [2] was < 100 nM in each case. The EC50 (usually the concentration that produces a half-maximal response) in assay [1] (Homo sapiens, MIA PaCa-2, 72 h) lay within 100 to 1000 nM. Moreover, the DC50 (in general, the concentration at which degradation of the target reaches its halfway point) at KRAS(G12C) [3] fell in the range of 100 to 1000 nM.
For “(S)-4-(4-((4-(1-(2-((4-(4-acryloyl-3-(cyanomethyl)piperazin-1-yl)-7-(8-chloronaphthalen-1-yl)-5,6,7,8-tetrahydropyrido[3,4-d]pyrimidin-2-yl)oxy)ethyl)piperidine-4-carbonyl)piperazin-1-yl)methyl)phenyl)-5-(2,4-dihydroxy-5-methylphenyl)-N-(2,2,2-trifluoroethyl)-4H-1,2,4-triazole-3-carboxamide [Compound 257]”, the EC50 in assay [1] (72 hr) lay within 100 to 1000 nM. The IC50 at KRAS(G12C) [2] was < 100 nM. This molecule had a DC50 at KRAS(G12C) [3] of 100 to 1000 nM.
In assay [1] (72 hr), `C=CC(=O)N1CCN(c2nc(OCCN3CCC(C(=O)N4CCN(Cc5ccc(-n6c(C(=O)NCC(F)(F)F)nnc6-c6cc(C)c(O)cc6O)cc5)CC4)CC3)nc3c2CCN(c2cccc4cccc(Cl)c24)C3)C[C@@H]1CC#N` [Compound 250, (S)-4-(4-((4-(1-(2-((4-(4-acryloyl-3-(cyanomethyl)piperazin-1-yl)-7-(8-chloronaphthalen-1-yl)-5,6,7,8-tetrahydropyrido[3,4-d]pyrimidin-2-yl)oxy)ethyl)piperidine-4-carbonyl)piperazin-1-yl)methyl)phenyl)-5-(2,4-dihydroxy-5-methylphenyl)-N-(2,2,2-trifluoroethyl)-4H-1,2,4-triazole-3-carboxamide] returned an EC50 of 100 to 1000 nM. Moreover, the IC50 at KRAS(G12C) [2] is < 100 nM. Besides, on KRAS(G12C) [3], the DC50 was > 1000 nM.
The molecule `C=CC(=O)N1CCN(c2nc(OC[C@@H]3C[C@H](N4CCN(Cc5ccc(-n6c(O)nnc6-c6cc(C(C)C)c(O)cc6O)cc5)CC4)CN3C)nc3c2CCN(c2cccc4cccc(Cl)c24)C3)C[C@@H]1CC#N` [Compound 241, 2-[(2S)-4-[7-(8-chloronaphthalen-1-yl)-2-{[(2S,4S)-4-[4-({4-[3-(2,4-dihydroxy-5-isopropylphenyl)-5-hydroxy-1,2,4-triazol-4-yl]phenyl}methyl)piperazin-1-yl]-1-methylpyrrolidin-2-yl]methoxy}-5H,6H,8H-pyrido[3,4-d]pyrimidin-4-yl]-1-(prop-2-enoyl)piperazin-2-yl]acetonitrile] came in with an EC50 in assay [1] (Homo sapiens, MIA PaCa-2, 72 h) of 100 to 1000 nM. For the same molecule, the IC50 on KRAS(G12C) [2] was < 100 nM. Moreover, the DC50 on KRAS(G12C) [3] was > 1000 nM.
`C=CC(=O)N1CCN(c2nc(OC[C@@H]3C[C@H](N4CCN(Cc5ccc(-n6c(C(=O)NCC)nnc6-c6cc(C(C)C)c(O)cc6O)cc5)CC4)CN3C)nc3c2CCN(c2cccc4ccc(F)c(Cl)c24)C3)C[C@@H]1CC#N` [Compound 278, 4-[4-({4-[(3S,5S)-5-({[7-(8-chloro-7-fluoronaphthalen-1-yl)-4-[(3S)-3-(cyanomethyl)-4-(prop-2-enoyl)piperazin-1-yl]-5H,6H,8H-pyrido[3,4-d]pyrimidin-2-yl]oxy}methyl)-1-methylpyrrolidin-3-yl]piperazin-1-yl}methyl)phenyl]-5-(2,4-dihydroxy-5-isopropylphenyl)-N-ethyl-1,2,4-triazole-3-carboxamide] gave an EC50 in assay [1] (Homo sapiens, MIA PaCa-2, 72 h) of 100 to 1000 nM. Further, on KRAS(G12C) [2], the IC50 was < 100 nM. The DC50 at KRAS(G12C) [3] lay within 100 to 1000 nM.
Molecule `C=CC(=O)N1CCN(c2nc(OCCN3CCC(C(=O)N4CCN(Cc5ccc(-n6c(C(=O)NCC(F)(F)F)nnc6-c6cc(C)c(O)cc6O)cc5)CC4)CC3)nc3c2CCN(c2cccc4cccc(Cl)c24)C3)C[C@@H]1CC#N` [Compound 251, (S)-4-(4-((4-(1-(2-((4-(4-acryloyl-3-(cyanomethyl)piperazin-1-yl)-7-(8-chloronaphthalen-1-yl)-5,6,7,8-tetrahydropyrido[3,4-d]pyrimidin-2-yl)oxy)ethyl)piperidine-4-carbonyl)piperazin-1-yl)methyl)phenyl)-5-(2,4-dihydroxy-5-methylphenyl)-N-(2,2,2-trifluoroethyl)-4H-1,2,4-triazole-3-carboxamide] showed an EC50 in assay [1] (72 hr) of 100 to 1000 nM. Also, the IC50 at KRAS(G12C) [2] is < 100 nM. For the same molecule, the DC50 at KRAS(G12C) [3] was > 1000 nM.
For the molecule `C=CC(=O)N1CCN(c2nc(OC[C@@H]3CC[C@H](CN4CCN(Cc5ccc(-n6c(O)nnc6-c6cc(C(C)C)c(O)cc6O)cc5)CC4)N3C)nc3c2CCN(c2cccc4ccc(F)c(Cl)c24)C3)C[C@@H]1CC#N` [Compound 268, 2-[(2S)-4-[7-(8-chloro-7-fluoronaphthalen-1-yl)-2-{[(2S,5R)-5-{[4-({4-[3-(2,4-dihydroxy-5-isopropylphenyl)-5-hydroxy-1,2,4-triazol-4-yl]phenyl}methyl)piperazin-1-yl]methyl}-1-methylpyrrolidin-2-yl]methoxy}-5H,6H,8H-pyrido[3,4-d]pyramidin-4-yl]-1-(prop-2-enoyl)piperazin-2-yl]acetonitrile], the EC50 in assay [1] (Homo sapiens, MIA PaCa-2, 72 h) lay in the range of 100 to 1000 nM. Further, on KRAS(G12C) [2], the IC50 is < 100 nM. The DC50 at KRAS(G12C) [3] is > 1000 nM.
The molecule `C=CC(=O)N1CCN(c2nc(OC[C@@H]3CC[C@H](CN4CCN(Cc5ccc(-n6c(O)nnc6-c6cc(C(C)C)c(O)cc6O)cc5)CC4)N3C)nc3c2CCN(c2cccc(C)c2C)C3)C[C@@H]1CC#N` [Compound 281, 2-[(2S)-4-(2-{[(2S,5R)-5-{[4-({4-[3-(2,4-dihydroxy-5-isopropylphenyl)-5-hydroxy-1,2,4-triazol-4-yl]phenyl}methyl)piperazin-1-yl]methyl}-1-methylpyrrolidin-2-yl]methoxy}-7-(2,3-dimethylphenyl)-5H,6H,8H-pyrido[3,4-d]pyrimidin-4-yl)-1-(prop-2-enoyl)piperazin-2-yl]acetonitrile] showed an EC50 in assay [1] (Homo sapiens, MIA PaCa-2, 72 h) of 100 to 1000 nM. Moreover, the IC50 on KRAS(G12C) [2] was < 100 nM. The DC50 on KRAS(G12C) [3] was in the range of 100 to 1000 nM.
In assay [1] (Homo sapiens, MIA PaCa-2, 72 h), `C=CC(=O)N1CCN(c2nc(OC[C@@H]3CC[C@H](CN4CCN(C(=O)C5CCN(Cc6ccc(-n7c(O)nnc7-c7cc(C(C)C)c(O)cc7O)cc6)CC5)CC4)N3C)nc3c2CCN(c2cccc4ccccc24)C3)C[C@@H]1CC#N` [Compound 255, 2-[(2S)-4-(2-{[(2S,5R)-5-({4-[1-({4-[3-(2,4-dihydroxy-5-isopropylphenyl)-5-hydroxy-1,2,4-triazol-4-yl]phenyl}methyl)piperidine-4-carbonyl]piperazin-1-yl}methyl)-1-methylpyrrolidin-2-yl]methoxy}-7-(naphthalen-1-yl)-5H,6H,8H-pyri-do[3,4-d]pyrimidin-4-yl)-1-(prop-2-enoyl)piperazin-2-yl] acetonitrile] registered an EC50 of 100 to 1000 nM. The IC50 at KRAS(G12C) [2] is < 100 nM. Moreover, on KRAS(G12C) [3], the DC50 is 100 to 1000 nM.
Turning to `C=CC(=O)N1CCN(c2nc(OC[C@@H]3C[C@H](N4CCN(Cc5ccc(-n6c(O)nnc6-c6cc(C(C)C)c(O)cc6O)cc5)CC4)CN3C)nc3c2CCN(c2cccc4ccc(F)c(Cl)c24)C3)C[C@@H]1CC#N` [Compound 277, 2-[(2S)-4-[7-(8-chloro-7-fluoronaphthalen-1-yl)-2-{[(2S,4S)-4-[4-({4-[3-(2,4-dihydroxy-5-isopropylphenyl)-5-hydroxy-1,2,4-triazol-4-yl]phenyl}methyl)piperazin-1-yl]-1-methylpyrrolidin-2-yl]methoxy}-5H,6H,8H-pyrido[3,4-d]pyrimidin-4-yl]-1-(prop-2-enoyl)piperazin-2-yl]acetonitrile], the EC50 in assay [1] (Homo sapiens, MIA PaCa-2, 72 h) was in the range of 100 to 1000 nM. Also, the IC50 at KRAS(G12C) [2] is < 100 nM. Moreover, on KRAS(G12C) [3], the DC50 is > 1000 nM.
`C=CC(=O)N1CCN(c2nc(OC[C@@H]3C[C@H](N4CCC(C(=O)N5CCN(Cc6ccc(-n7c(O)nnc7-c7cc(C(C)C)c(O)cc7O)cc6)CC5)CC4)CN3C)nc3c2CCN(c2cccc4ccccc24)C3)C[C@@H]1CC#N` [Compound 246, 2-[(2S)-4-(2-{[(2S,4S)-4-{4-[4-({4-[3-(2,4-dihydroxy-5-isopropylphenyl)-5-hydro-xy-1,2,4-triazol-4-yl]phenyl}methyl)piperazine-1-carbonyl]piperidin-1-yl}-1-methylpyrrolidin-2-yl]methoxy}-7-(naphthalen-1-yl)-5H,6H,8H-pyrido[3,4-d]pyrimidin-4-yl)-1-(prop-2-enoyl)piperazin-2-yl]acetonitrile] showed an EC50 in assay [1] (Homo sapiens, MIA PaCa-2, 72 h) of 100 to 1000 nM. Besides, the IC50 at KRAS(G12C) [2] is < 100 nM. Besides, the DC50 at KRAS(G12C) [3] was > 1000 nM.

The values above are taken from patent publication US20230391772A1, “METHODS AND COMPOSITIONS FOR TARGETED PROTEIN DEGRADATION” (Ranok Therapeutics (Hangzhou) Co. Ltd., priority 2020, published 2023).
